# In patent publication US8779001B2, “Stat3 inhibitors” (The United States of America National Institute of Health …, priority 2008, dated 2014):
# Assays:
# Stat1 = molecular target: T1, Stat1 (Homo sapiens, UniProt P42224); experiment: Immunoblot assay of IFN-γ-stimulated Stat1 phosphorylation in HepG2 cells; assay type: cell-based; details: HepG2, compound 300 μM, 1 hour, IFN-γ 30 ng/ml 30 min
# T1 construct: endogenous in cells; host or cells: HepG2
# T1 sequence (P42224 1-750): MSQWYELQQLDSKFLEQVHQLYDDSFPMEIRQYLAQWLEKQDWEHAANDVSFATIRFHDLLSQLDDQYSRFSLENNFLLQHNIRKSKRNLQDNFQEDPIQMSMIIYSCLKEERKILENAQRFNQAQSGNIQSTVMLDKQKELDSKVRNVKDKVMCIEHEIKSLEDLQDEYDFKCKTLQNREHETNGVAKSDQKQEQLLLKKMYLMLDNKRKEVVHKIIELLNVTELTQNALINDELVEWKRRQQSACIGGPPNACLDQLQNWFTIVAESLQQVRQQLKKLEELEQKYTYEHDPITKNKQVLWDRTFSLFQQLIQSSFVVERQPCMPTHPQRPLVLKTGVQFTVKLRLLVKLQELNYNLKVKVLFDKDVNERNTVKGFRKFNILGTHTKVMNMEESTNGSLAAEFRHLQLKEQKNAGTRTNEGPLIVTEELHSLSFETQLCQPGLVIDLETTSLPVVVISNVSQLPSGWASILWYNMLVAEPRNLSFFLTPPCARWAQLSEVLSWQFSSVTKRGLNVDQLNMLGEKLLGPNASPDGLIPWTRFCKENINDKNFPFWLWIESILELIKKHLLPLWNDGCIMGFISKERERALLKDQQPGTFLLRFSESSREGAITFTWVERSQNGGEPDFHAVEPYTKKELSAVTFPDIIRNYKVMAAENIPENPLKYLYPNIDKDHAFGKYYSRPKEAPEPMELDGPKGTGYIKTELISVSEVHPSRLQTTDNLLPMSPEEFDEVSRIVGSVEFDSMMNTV
# Protocol: HepG2 cells were pretreated with DMSO alone or DMSO containing each of the compounds at a concentration of 300 μM for 60 min. Cells were then stimulated with IFN-γ (30 ng/ml) for 30 min. Protein extracts of cells were separated by SDS-PAGE and immunoblotted serially with antibodies to pStat1, total Stat1 and β-actin. Blots were stripped between each immunoblotting. The results shown are representative of 2 or more experiments.
# Immunoblot assay. The human hepatocellular carcinoma cell line (HepG2) was grown in 6-well plates under standard conditions. Cells were pretreated with compounds (0, 1, 3, 10, 30, 100 and 300 uM) for 1 hour then stimulated under optimal conditions with either interferon gamma (IFN-γ; 30 ng/ml for 30 min) to activate Stat1 or interleukin-6 (IL-6; 30 ng/ml for 30 min) to activate Stat3 (30-31). Cultures were then harvested and proteins extracted using high-salt buffer, as described (Shao et al., 2006). Briefly, extracts were mixed with 2× sodium dodecyl sulfate (SDS) sample buffer (125 mmol/L Tris-HCL pH 6.8; 4% SDS; 20% glycerol; 10% 2-mercaptoethanol) at a 1:1 ratio and heated for 5 minutes at 100° C. Proteins (20 μg) were separated by 7.5% SDS-PAGE and transferred to polyvinylidene fluoride (PVDF) membrane (Millipore, Waltham, Mass.) and immunoblotted. Prestained molecular weight markers (Biorad, Hercules, Calif.) were included in each gel. Membranes were probed serially with antibody against Stat1 pY^701 or Stat3 pY^705 followed by antibody against Stat1 or Stat3 (Transduction labs, Lexington, Ky.) then antibody against β-actin (Abeam, Cambridge, Mass.). Membranes were stripped between antibody probing using Restore™ Western Blot Stripping Buffer (Thermo Fisher Scientific Inc., Waltham, Mass.) per the manufacturer's instructions. Horseradish peroxidase-conjugated goat-anti-mouse IgG was used as the secondary antibody (Invitrogen Carlsbad, Calif.) and the membranes were developed with enhanced chemiluminescence (ECL) detection system (Amersham Life Sciences Inc.; Arlington Heights, Ill.).
# While Stat3 contributes to oncogenesis, in part, through inhibition of apoptosis, Stat1 is anti-oncogenic; it mediates the apoptotic effects of interferons and contributes to tumor surveillance (Kaplan et al., 1998; Ramana et al., 2000). Consequently, compounds that target Stat3 while sparing Stat1, leaving its anti-oncogenic functions unopposed, may result in a synergistic anti-tumor effect. […] Thus, five of the six exemplary compounds identified were selective and inhibited ligand-stimulated phosphorylation of Stat3 but not Stat1.
# EXP IIC. Ligand-mediated pStat3 and pStat1 inhibition assays. […] Briefly, human hepatocellular carcinoma cells (HepG2) are grown in 6-well plates and pretreated with compounds (0, 0.1, 0.3, 1, 3, 10, 30, 100 μM) for 1 hour then stimulated under optimal conditions with either interleukin-6 (IL-6; 30 ng/ml for 30 min) to activate Stat3 or interferon gamma (IFN-γ, 30 ng/ml for 30 min) to activate Stat1. Cells are harvested and proteins extracted using high-salt buffer, mixed with 2× sodium dodecyl sulfate (SDS) sample buffer (125 mmol/L Tris-HCL pH 6.8; 4% SDS; 20% glycerol; 10% 2-mercaptoethanol) at a 1:1 ratio then heated for 5 minutes at 100° C. Proteins (20 μg) are separated by 7.5% SDS-PAGE and transferred to polyvinylidene fluoride (PVDF) membrane (Millipore, Waltham, Mass.) and immunoblotted. Membranes are probed serially with antibody against Stat1 pY701 or Stat3 pY705 followed by antibody against Stat1 or Stat3 (Transduction labs, Lexington, Ky.) then antibody against β-actin (Abcam, Cambridge, Mass.). Membranes are stripped between antibody probings using Restore™ Western Blot Stripping Buffer (Thermo Fisher Scientific Inc., Waltham, Mass.) per the manufacturer's instructions. […]
# Stat3:hSIE complexes = molecular target: T2, Stat3:hSIE complexes (Homo sapiens, UniProt P40763); experiment: Electrophoretic mobility shift assay (EMSA) of Stat3 DNA binding; assay type: biochemical; details: extracts of IL-6-stimulated HepG2 cells, compound 300 μM, 60 minutes at 37° C
# T2 construct: endogenous in cells; host or cells: HepG2
# T2 sequence (P40763 2-770 limits assumed, one chain of several): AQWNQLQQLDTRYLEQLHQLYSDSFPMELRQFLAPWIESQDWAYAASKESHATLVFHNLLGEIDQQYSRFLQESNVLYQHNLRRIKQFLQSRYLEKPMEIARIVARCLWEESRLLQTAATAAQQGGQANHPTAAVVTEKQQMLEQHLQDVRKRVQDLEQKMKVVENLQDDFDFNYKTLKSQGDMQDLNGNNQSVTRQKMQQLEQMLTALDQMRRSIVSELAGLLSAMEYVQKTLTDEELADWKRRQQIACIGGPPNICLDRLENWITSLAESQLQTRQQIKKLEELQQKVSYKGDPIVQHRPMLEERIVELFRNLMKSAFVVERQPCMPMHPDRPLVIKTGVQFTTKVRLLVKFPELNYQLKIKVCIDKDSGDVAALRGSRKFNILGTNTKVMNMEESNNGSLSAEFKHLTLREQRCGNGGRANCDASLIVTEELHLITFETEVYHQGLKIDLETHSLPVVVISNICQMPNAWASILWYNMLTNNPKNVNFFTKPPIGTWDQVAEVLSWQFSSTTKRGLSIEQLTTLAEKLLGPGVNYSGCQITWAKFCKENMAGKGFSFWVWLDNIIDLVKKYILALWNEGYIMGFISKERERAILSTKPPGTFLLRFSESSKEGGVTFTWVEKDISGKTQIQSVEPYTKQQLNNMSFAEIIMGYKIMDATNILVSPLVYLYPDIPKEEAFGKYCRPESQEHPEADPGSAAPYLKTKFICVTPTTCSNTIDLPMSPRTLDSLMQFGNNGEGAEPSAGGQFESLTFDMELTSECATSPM
# Protocol: Electrophoretic mobility shift assays were performed using whole-cell extracts prepared from HepG2 cells without and with stimulation with IL-6 (30 ng/ml) for 30 min. Protein (20 μg) was incubated with radiolabeled duplex oligonucleotide (hSIE) and DMSO without or with the indicated compounds (300 uM) for 60 minutes at 37° C. then separated by PAGE. The gel was dried and autoradiographed; the portion of the gel corresponding to the Stat3-bound hSIE band is shown. Data shown are representative of 2 studies.
# Electrophoretic Mobility Shift Assay (EMSA): EMSA was performed using the hSIE radiolabeled duplex oligonucleotide as a probe as described (Tweardy et al., 1995). Briefly, high salt extracts were prepared from HepG2 cells incubated without or with IL-6 (30 ng/ml) for 30 minutes. Protein concentration was determined by Bradford Assay and 20 ug of extract was incubated with compound (300 uM) for 60 minutes at 37° C. […] Gels were dried and autoradiographed.
# Once in the nucleus, Stat3 dimers bind to specific DNA elements to activate and, in some instances, repress gene transcription. […] Compounds that bind to the phosphopeptide-binding site of Stat3 might be expected to do the same. […]
# breast cancer cell lines = experiment: Breast cancer cell line apoptosis assay, statements over several cell lines; assay type: cell-based, human; details: five breast cancer cell lines
# Protocol: MDA-MB-468 (panel A), MDA-MB-231 (panel B), MDA-MB-435 (panel C), MCF7 (panel D) and MDA-MB-453 (panel E) were seeded in 12-well plates, grown overnight then treated with the indicated compound for 24 hr. Cells were centrifuged and the supernatants assayed for nucleosome levels by ELISA.
# Human breast carcinoma cell lines MDA-MB-468, MDA-MB-231, MBA-MD-435 and MCF7 were kindly provided by Dr. Powel H. Brown (Breast Cancer Center, Baylor College of Medicine). Breast cancer cell line, MDA-MB-453 was kindly provided by Dr. Shou Jiang (Breast Cancer Center, Baylor College of Medicine). […] Cells were seeded at 2,500 cells/cm^2 into 12-well plates. […] At 24 hours, treatment was terminated by removing the medium from each well. […] The percent maximum nucleosome level was calculated by dividing the nucleosome level by the maximum nucleosome level achieved in the assay and multiplying by 100.
# [1] = test system: triple negative human breast cancer xenograft; experiment: Two-day pilot triple-negative human breast cancer xenograft experiment, MSFE measured; assay type: in vivo, SCID Beige mice; details: 250 mcg, two days of treatment, P<0.05
# From the text: The mice were sacrificed after two days and MSFE measured.
# A tumor line derived from a “triple negative” (ER-negative, PgR-negative, and HER-2 negative) human breast cancer biopsy specimen was transplanted into immunocompromised SCID Beige mice. The animals (n=3) received two doses of vehicle control, 2 different doses of Cpd 188 (125 or 250 mcg), a G-quartet oligodeoxynucleotide (GQ-ODN, T40214; GQ-I) previously determined to target Stat3 (Jing et al., 2004) and a control non-specific ODN (GQ-II) each at two doses (125 or 250 mcg). The animals were sacrificed after only two days of treatment, and MSFE determined.
# [2] = test system: breast cancer cells with constitutively activated Stat3; details: Schust et al., 2006; cited from earlier work
# Stat3 = Stat3 (Homo sapiens, UniProt P40763); details: fluorescence polarization, Coleman et al., 2005; read-out: IC50 inhibition of Stat3 binding to pY-peptide; cited from earlier work
# Stat3, sequence (P40763 whole entry): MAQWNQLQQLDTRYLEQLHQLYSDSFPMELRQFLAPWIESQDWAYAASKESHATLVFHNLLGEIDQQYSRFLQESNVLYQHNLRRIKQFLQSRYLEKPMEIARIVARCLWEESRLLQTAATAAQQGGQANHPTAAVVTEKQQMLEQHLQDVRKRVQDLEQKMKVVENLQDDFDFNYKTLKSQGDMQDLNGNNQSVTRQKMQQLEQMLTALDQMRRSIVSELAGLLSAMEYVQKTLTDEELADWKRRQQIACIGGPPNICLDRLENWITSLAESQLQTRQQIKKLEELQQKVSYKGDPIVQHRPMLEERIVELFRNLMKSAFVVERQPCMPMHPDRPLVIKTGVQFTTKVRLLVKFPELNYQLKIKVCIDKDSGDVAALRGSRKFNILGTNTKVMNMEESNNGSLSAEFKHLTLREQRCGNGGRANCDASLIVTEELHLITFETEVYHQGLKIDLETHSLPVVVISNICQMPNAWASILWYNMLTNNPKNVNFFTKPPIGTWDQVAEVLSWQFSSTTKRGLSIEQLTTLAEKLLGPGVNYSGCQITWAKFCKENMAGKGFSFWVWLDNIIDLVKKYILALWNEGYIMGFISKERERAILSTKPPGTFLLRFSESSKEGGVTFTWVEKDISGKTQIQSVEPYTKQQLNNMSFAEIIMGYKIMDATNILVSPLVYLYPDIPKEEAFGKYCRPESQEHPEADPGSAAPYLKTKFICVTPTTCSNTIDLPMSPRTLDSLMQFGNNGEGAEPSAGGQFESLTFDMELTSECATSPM
molecule,measurement,setting,value
"O=C(O)c1ccc(C=CC(=O)c2ccc3c(c2)OCCO3)cc1 [Cpd3, 4-[3-(2,3-dihydro-1,4-benzodioxin-6-yl)-3-oxo-1-propen-1-yl]benzoic acid]",effect on IFN-γ-stimulated Stat1 phosphorylation,Stat1,did not
same,effect on Stat3:hSIE band intensity (EMSA),Stat3:hSIE complexes,reduced the amount of hSIE shifted by half or greater
"CCOc1cc(C=C2C(=O)c3ccccc3C2=O)cc(Cl)c1OCc1cccc(C(=O)O)c1 [Cpd3-2, 3-({2-chloro-4-[(1,3-dioxo-1,3-dihydro-2H-inden-2-ylidene)methyl]-6-ethoxyphenoxy}methyl)benzoic acid]",induction of apoptosis of any of the breast cancer cell lines tested,breast cancer cell lines,neither Cpd3-2 nor Cpd3-7 induced apoptosis
same,effect on IFN-γ-stimulated Stat1 phosphorylation,Stat1,did not
"COC(=O)Cc1c(C)c2ccc(OCc3ccc(C(=O)OC)cc3)c(C)c2oc1=O [Cpd3-7, methyl 4-({[3-(2-methyoxy-2-oxoethyl)-4,8-dimethyl-2-oxo-2H-chromen-7-yl]oxy}methyl)benzoate]",induction of apoptosis of any of the breast cancer cell lines tested,breast cancer cell lines,neither Cpd3-2 nor Cpd3-7 induced apoptosis
same,effect on IFN-γ-stimulated Stat1 phosphorylation,Stat1,did not
same,effect on Stat3:hSIE band intensity (EMSA),Stat3:hSIE complexes,reduced the amount of hSIE shifted by half or greater
"CCN1C(=O)C(=Cc2ccc(-c3ccc(C(=O)O)cc3)o2)SC1=S [Cpd30, 4{5-[(3-ethyl-4-oxo-2-thioxo-1,3-thiazolidin-5-ylidene)methyl]-2-furyl}benzoic acid]",effect on IFN-γ-stimulated Stat1 phosphorylation,Stat1,did not
"CCN1C(=O)C(=Cc2ccc(-c3cc(C(=O)O)ccc3Cl)o2)C(=O)N(CC)C1=S [Cpd30-12, 4-chloro-3-{5-[(1,3-diethyl-4,6-dioxo-2-thioxotetrahydro-5(2H)-pyrimidinylidene)methyl]-2-furyl}benzoic acid]",effect on IFN-γ-stimulated Stat1 phosphorylation,Stat1,blocked Stat1 phosphorylation
"O=C(O)CSc1cc(NS(=O)(=O)c2ccc(C(=O)O)cc2)c2ccccc2c1O [Cpd188, 4-[({3-[(carboxymethyl)thio]-4-hydroxy-1-naphthyl}amino)sulfonyl]benzoic acid]",effect on IFN-γ-stimulated Stat1 phosphorylation,Stat1,did not
same,reduction in MSFE compared to control,[1],significant reduction in MSFE
O=[N+]([O-])c1ccc2c(c1)S(=O)(=O)C=C2 [Stattic],concentration range inducing apoptosis / Stat3 inhibitory effects,[2],5 to 20 µM
"hydrocinnamoyl-Tyr(PO3H2)-Leu-cis-3,4-methanoPro-Gln-NHB",IC50,Stat3,125 nM
